In brackets after ≈: the same amount, converted by molar mass. Where two headings read alike, the source gives them in different places. Each block holds one compound with its values, some of them ahead of it.
Tests used:
[1] = system: Candida albicans ATCC 10231; experiment: MIC/CFM by microdilution (CLSI M27-A2); type: cell-based
[2] = system: Candida tropicalis USP 1658; experiment: MIC by microdilution (CLSI M27-A2); type: cell-based; set-up: key: —: There was no growth inhibition
[3] = system: Candida parapsilosis ATCC 22019; experiment: MIC/CFM by microdilution (CLSI M27-A2); type: cell-based
[4] = system: Candida parapsilosis USP 1933; experiment: MIC/CFM by microdilution (CLSI M27-A2); type: cell-based; set-up: key to MIC: —: There was no growth inhibition
[5] = system: Candida albicans USP 1565; experiment: MIC by microdilution (CLSI M27-A2); type: cell-based; set-up: key: —: There was no growth inhibition
[6] = system: Candida guilhermondii USP; experiment: MIC/CFM by microdilution (CLSI M27-A2); type: cell-based; set-up: key to MIC: —: There was no growth inhibition
[7] = system: Candida krusei ATCC 6258; experiment: MIC/CFM by microdilution (CLSI M27-A2); type: cell-based; set-up: key to MIC: —: There was no growth inhibition
[8] = system: Candida krusei USP 2223; experiment: MIC by microdilution (CLSI M27-A2); type: cell-based; set-up: key: —: There was no growth inhibition
[9] = system: Candida albicans OF-M3-20; experiment: MIC/CFM by microdilution (CLSI M27-A2); type: cell-based
Procedure: (§1) Pure substances termed P1 and P2 previously dissolved in 20% DMSO, were diluted in RPMI medium, with final concentrations of 96 μg.mL-1. […] The same was also tested individually, diluted in RPMI medium, with initial concentration of 1 μL.mL-1. […] Cultures of Candida sp. were prepared and standardized in […] saline solution at 0.85%. For inoculums standardization, a spectrophotometer equipment was used, with wavelength at 530 nm and absorbance adjustment between 0.130 and 0.150, having as white the saline solution free of inoculum or any other contaminant, corresponding to concentrations of 10^6 CFU/mL. In this condition the inoculum “mother” was diluted 50 times and from this inoculum “child” the dilution was performed 20 times to obtain a standard inoculum in 10^3 cells per well. […] To aid in the growth view, were added to the wells dye 50 μL 2,3,5-triphenyltetrazolium chloride (TTC) at 5 mg.mL “1, being performed the readings after 4 hours of incubation. Prior to the addition of dye, aliquots of 96-well plate were transferred to Petri with Agar-Sabouraud Dextrose to determine the Minimum Fungicidal Concentration. Plates were incubated for 24 hours at 35° C.

[10] = system: Candida albicans OF-M7-19; experiment: MIC/CFM by microdilution (CLSI M27-A2); type: cell-based
Procedure: as §1

[11] = system: Candida albicans USP 1; experiment: MIC/CFM by microdilution (CLSI M27-A2); type: cell-based
Procedure: as §1

[12] = system: Microsporum canis ATCC 32903; experiment: MIC by microdilution, filamentous fungi (CLSI M38-A); type: cell-based; details: Table 13, Microsporum canis ATCC 32903, 7 days, 28° C.
Procedure: (§2) Pure substances termed P1 and P2 previously dissolved in 20% DMSO, were diluted in RPMI medium, with final concentrations of 96 μg.mL-1. […] Cultures of filamentous fungi described below were inoculated in Agar-Batata Dextrose medium and inoculated for 7 days, at 28° C. Colonies of cultures inoculated for 7 days in an oven at 28° C. were shrouded with 0.85% saline solution, scraped and then transferred to conical tubes. After resting for 5 minutes, the supernatant was transferred to new conical tubes for subsequent quantification in spectrophotometer, at 530 nm, with the transmittance adjustment of 80-82% for A. niger and 70% for other microorganisms. After adjustment, there was a 1:50 dilution in RPM. The determination of Minimum Inhibitory Concentration was performed after 7 days, at 28° C. After the incubation period, aliquots of 96-well plates were transferred to Petri plates with Potato Dextrose Agar, to determine the Minimum Fungicidal Concentration. Plates were inoculated for more 7 days, at 28° C.

[13] = system: Phomopsis longicolla (soy isolate); experiment: as above; type: cell-based; details: Table 13, Phomopsis longicolla- soy, 7 days, 28° C.
Procedure: as §2

[14] = system: Trichophyton menthagrophyton ATCC 9533; experiment: as above; type: cell-based; details: Table 13, Trichophyton menthagrophyton ATCC 9533, 7 days, 28° C.
Procedure: as §2

[15] = system: Candida tropicalis USP B3; experiment: MIC by microdilution (CLSI M27-A2); type: cell-based; set-up: key: —: There was no growth inhibition
[16] = system: Trichophyton rubrum ATCC MYA-3108; experiment: MIC by microdilution, filamentous fungi (CLSI M38-A); type: cell-based; details: Table 11, Trichophyton rubrum ATCC MYA-3108
[17] = system: C. Albicans USP 2; experiment: MIC/CFM against Candida sp. strains; type: cell-based; details: Table 14, C. Albicans USP 2
[18] = system: Candida glabrata ATCC; experiment: MIC/CFM against Candida sp. strains; type: cell-based; details: Nakaseomyces glabratus; Table 14, Candida glabrata ATCC
[19] = DPPH antioxidant test; type: biochemical; details: 517 nm
Procedure: The antioxidant activity evaluation was performed through DPPH test.
Extract flower ethanol samples and PV6.7 were dissolved in methanol in concentrations of 1 mg.mL-1, 500 μg, mL-1, 250 μg, mL-1, 125 μg, mL-1, 62.5 μg, mL-1 and 31.25 μg, mL-1. As control Metabissulfito and Rutin were used in the same conditions of the samples.
Around 0.002 g of DPPH was dissolved in 50 mL of methanol. Then, it was verified the solution absorbance in spectrophotometer, in 517 nm, which must be below 1.
In a plastic Eppendorf, it was added 950 μL of methanolic solution of DPPH and 50 μL of the sample. As white, it was used in the place of the sample 50 μL of methanol. The samples were then incubated for 15 minutes at 30° C. After this period, the solutions were transferred to cuvettes and performed the readings at 517 nm, zeroing the spectrophotometer with methanol.
% inhibition=B−A/B×100, being A=sample, and B=White

[20] = Table 11, C. Tropicalis USP 1658
[21] = Table 11, C. parapsilosis USP 1933

SMILES: CC(=O)N1CCN(c2ccc(OCC3COC(Cn4ccnc4)(c4ccc(Cl)cc4Cl)O3)cc2)CC1 (stereo not drawn) [Cetoconazol]
MIC ([1]; Table 12, C. albicans ATCC 10231, 48 h, 35° C.): 32 µg/mL (≈ 60.2 µM) | MIC ([2]; Table 12, C. tropicalis USP 1658, 48 h, 35° C.): *<4 μg · mL^−1 | MIC ([3]; Table 12, C. parapsilosis ATCC 22019, 48 h, 35° C.): <0.125 µg/mL | MIC ([4]; Table 12, C. parapsilosis USP 1933, 48 h, 35° C.): <0.125 µg/mL | MIC ([5]; Table 12, C. albicans USP 1565, 48 h, 35° C.): <0.125 µg/mL | MIC ([6]; Table 12, C. guilhermondii USP, 48 h, 35° C.): 0.125 µg/mL (≈ 0.235 µM) | MIC ([7]; Table 12, C. krusei ATCC 6258, 48 h, 35° C.): <0.125 µg/mL | MIC ([8]; Table 12, C. krusei USP 2223, 48 h, 35° C.): 2 µg/mL (≈ 3.76 µM) | MIC ([9]; Table 12, C. albicans OF M3-20, 48 h, 35° C.): <0.125 µg/mL | MIC ([10]; Table 12, C. albicans OF M7-19, 48 h, 35° C.): <0.125 µg/mL | MIC ([11]; Table 12, C. albicans USP 1, 48 h, 35° C.): <0.125 µg/mL | MIC [12]: 4 µg/mL (≈ 7.53 µM) | MIC [13]: <0.125 µg/mL | MIC [14]: 2 µg/mL (≈ 3.76 µM)

SMILES: CC1OC(OC2C(O)C(COC(=O)/C=C/c3ccc(O)c(O)c3)OC(OCCc3ccc(O)c(O)c3)C2O)C(O)C(O)C1O (stereo not drawn) [Fraction P3, iso-verbascoside]
MIC ([1]; Candida albicans, ATCC10231, Table 14, C. Albicans ATCC 10231, read-out: MIC): 3 µg/mL (≈ 4.8 µM) | MIC ([15]; Candida tropicalis, USPB3, Table 14, C. Tropicalis UPS B3, read-out: MIC): 6 µg/mL (≈ 9.61 µM) | MIC ([3]; Lodderomyces parapsilosis, ATCC22019, Table 14, C. parapsilosis ATCC 22019, read-out: MIC): 1.5 µg/mL (≈ 2.4 µM) | MIC ([4]; Lodderomyces parapsilosis, USP1933, Table 14, C. parapsilosis USP 1933 ATCC, read-out: MIC): 3 µg/mL (≈ 4.8 µM) | MFC ([6]; Table 14, Candida guilhermondi USPATCC, read-out: CFM (Minimum Fungicidal Concentration)): 6 µg/mL (≈ 9.61 µM) | MIC ([6]; Table 14, Candida guilhermondi USPATCC, read-out: MIC): 1.5 µg/mL (≈ 2.4 µM) | MFC ([7]; Pichia kudriavzevii, ATCC6258, Table 14, C. krusei ATCC, read-out: CFM (Minimum Fungicidal Concentration)): 12 µg/mL (≈ 19.2 µM) | MIC ([7]; Pichia kudriavzevii, ATCC6258, Table 14, C. krusei ATCC, read-out: MIC): 1.5 µg/mL (≈ 2.4 µM) | MIC ([8]; Pichia kudriavzevii, USP2223, Table 14, C. krusei USP 2223, read-out: MIC): 1.5 µg/mL (≈ 2.4 µM) | MIC ([9]; Candida albicans, OFM320, Table 14, C. Albicans OF M3-20, read-out: MIC): 3 µg/mL (≈ 4.8 µM) | MIC ([10]; Candida albicans, OFM719, Table 14, C. Albicans OF M7-19, read-out: MIC): 0.75 µg/mL (≈ 1.2 µM) | MIC ([11]; Candida albicans, USP1, Table 14, C. Albicans USP 1, read-out: MIC): 1.5 µg/mL (≈ 2.4 µM) | MIC [17]: 3 µg/mL (≈ 4.8 µM) | MIC [18]: 0.375 µg/mL (≈ 0.6 µM)

SMILES: O=S([O-])S(=O)(=O)[O-].[Na+].[Na+] [Metabissulfito]
Antioxidant Activity Percentage ([19]; sample 31.25 μg · mL^−1, 15 minutes at 30° C.): 0% | Antioxidant Activity Percentage ([19]; sample 62.5 μg · mL^−1, 15 minutes at 30° C.): 0% | Antioxidant Activity Percentage ([19]; sample 125 μg · mL^−1, 15 minutes at 30° C.): 1.33% | Antioxidant Activity Percentage ([19]; sample 250 μg · mL^−1, 15 minutes at 30° C.): 4.62% | Antioxidant Activity Percentage ([19]; sample 500 μg · mL^−1, 15 minutes at 30° C.): 8.63% | Antioxidant Activity Percentage ([19]; sample 1 mg · mL^−1, 15 minutes at 30° C.): 15.3%

SMILES: OC(Cn1cncn1)(Cn1cncn1)c1ccc(F)cc1F [Fluconazol]
MIC ([15]; Candida tropicalis, USPB3, Table 11, C. Tropicalis USP B3, read-out: MIC): 1 µg/mL (≈ 3.27 µM) | MIC ([2]; Candida tropicalis, USP1658, Table 11, C. Tropicalis USP 1658, read-out: MIC): < 1 µg/mL | MIC ([4]; Lodderomyces parapsilosis, USP1933, Table 11, C. parapsilosis USP 1933, read-out: MIC): < 1 µg/mL | MIC ([5]; Candida albicans, USP1565, Table 11, C. Albicans USP 1565, read-out: MIC): < 1 µg/mL | MIC ([6]; Candida, Table 11, C. guilhermondii USP, read-out: MIC): < 1 µg/mL | MIC ([7]; Pichia kudriavzevii, ATCC6258, Table 11, C. krusei ATCC 6258, read-out: MIC): 8 µg/mL (≈ 26.1 µM) | MIC ([8]; Pichia kudriavzevii, ATCC2223, Table 11, C. krusei ATCC 2223, read-out: MIC): 64 µg/mL (≈ 209 µM) | MIC ([16]; read-out: MIC): 16 µg/mL (≈ 52.2 µM)

The remaining lines, values ahead:

MIC ([15]; Table 11, C. Tropicalis USP B3): 2 µg/mL (≈ 2.16 µM) | MIC [2, 20]: 1 µg/mL (≈ 1.08 µM) | MIC [4, 21]: 2 µg/mL (≈ 2.16 µM) | MIC ([5]; Table 11, C. Albicans USP 1565): 1 µg/mL (≈ 1.08 µM) | MIC ([6]; Table 11, C. guilhermondii USP): 2 µg/mL (≈ 2.16 µM) | MIC ([7]; Table 11, C. krusei ATCC 6258): 1 µg/mL (≈ 1.08 µM) | MIC [16]: 1 µg/mL (≈ 1.08 µM) | MIC [12]: 1.56 µg/mL (≈ 1.69 µM) | MIC [13]: 0.5 µg/mL (≈ 0.541 µM) | MIC [14]: 4 µg/mL (≈ 4.33 µM)
SMILES: C[C@@H]1[C@H](O)[C@@H](C)/C=C/C=C/C=C/C=C/C=C/C=C/C=C/[C@H](O[C@@H]2O[C@H](C)[C@@H](O)[C@H](N)[C@@H]2O)C[C@@H]2O[C@](O)(C[C@@H](O)C[C@@H](O)[C@H](O)CC[C@@H](O)C[C@@H](O)CC(=O)O[C@H]1C)C[C@H](O)[C@H]2C(=O)O [AnfotericinaB, Anfotericina B]

MIC ([15]; Table 11, C. Tropicalis USP B3): — | MIC [2, 20]: — | MIC [4, 21]: — | MIC ([5]; Table 11, C. Albicans USP 1565): — | MIC ([6]; Table 11, C. guilhermondii USP): — | MIC ([7]; Table 11, C. krusei ATCC 6258): — | MIC ([8]; Table 11, C. krusei ATCC 2223): — | MIC ([16]; read-out: MIC): 0.25 µg/mL (≈ 0.858 µM)
SMILES: CN(C/C=C/C#CC(C)(C)C)Cc1cccc2ccccc12 [Terbinafina ®, Terbinafina]

From patent US20150126465A1, “PROCESS FOR PRODUCING DERIVATIVES OF PYROSTEGIA VENUSTA, DERIVATIVES OF PYROSTEGIA VENUSTA, PHARMACEUTICAL COMPOSITIONS AND ITS USES” (priority 2011, published 2015)
